Experiments:
[1] = MTT cytotoxicity on normal human dermal fibroblast cells; assay type: cell-based; details: NHDF cells (normal human dermal fibroblasts), highest tested concentration (75 μM), read-out: cell viability
Source text: Alpha-MEM and the normal human dermal fibroblast cell line (NHDF) were obtained from Lonza (Lonza, Warsaw, Poland). Phosphate-buffered saline (PBS), fetal bovine serum (FBS), L-glutamine, and 100× antibiotic–antimycotic were from Cytogene (Zgierz, Poland). MTT (3-(4,5-dimethylthiazol-2-yl)-2,5-diphenyltetrazolium bromide) was from Sigma-Aldrich (Poznan, Poland) and DMSO was purchased from Archem (Kamieniec Wroclawski, Poland).
The viability of NHDF cells after treatment with PQA-AZ4 and PQA-AZ-6 was assayed using the previously described methodology. Briefly, 4.5 × 10^3 cells/well were seeded into a 96-multiwell plate and viability was evaluated using the MTT assay. Different volumes of each compound dissolved in DMSO (final concentrations 4.68, 9.37, 18.75, 37.5, and 75 μM, respectively), as well as DMSO itself as solvent control, were added to each well, mixed, and incubated for 48 h. Finally, the optical density was measured at 560 nm with a reference wavelength of 670 nm using an Asys UVM 340 Microplate Reader (Cambridge, UK). Results were expressed as the percentage of survival cells concerning the control (not treated cells).

rats [2] = test: Forced swim test (FST); assay type: in vivo, male Wistar rats; details: rat; for effect on immobility in FST / Immobility time: acute 1 mg/kg i.p.; for Immobility time: 60 min before test, 5 min session, vehicle 255.9 ± 8.6
Procedure: The rats were injected for 21 consecutive days at a dose of 1 mg/kg, similar to the dose used in acute treatment, as per data presented in Supplementary Materials (Table S1). The FST was conducted according to the method of Porsolt. On the first day of the experiment, the animals were gently placed individually for 15 min in Plexiglas cylinders (40 cm high, 18 cm in diameter) containing 15 cm of water maintained at 23–25 °C. On removal from water, the rats were placed for 30 min in a Plexiglas box under a 60 W bulb to dry. On the following day (24 h later), the rats were replaced in the cylinder and the total duration of immobility was recorded during the whole 5 min test period. Immobility was assigned when no additional activity was observed other than that necessary to keep the rat’s head above the water. Fresh water was used for each animal.
FST after acute administration of the investigated compounds
Rats were injected 60 min before the test at a dose of 1 mg/kg. FST was carried out according to the method of Porsolt, and the same procedure was used for chronic treatment.
Table S1. Effect of acute treatment of PQA-AZ4, PQA-AZ6, and PQ-10 on the immobility time in the […]
Compound (mg/kg) Immobility time (s)
Compounds were injected i.p. 60 min before the test. Values represent the means ± SEM of immobility in the FST during a 5 min test session. The data were analyzed using one -way ANOVA, followed by Bonferroni‘s post hoc test; NS = nonsignificant; N=7-8.

[3] = tested on: (+)-MK-801-induced memory deficits; test: Novel object recognition (NOR) test in (+)-MK-801 treated rats; assay type: in vivo, male Wistar rats; details: rat; for Total Exploratory Time in T2 Session: vehicle 49.67 ± 4.63; for effect on (+)-MK-801-induced recognition memory deficits (discrimination index): 21 days, (+)-MK-801 0.1 mg/kg i.p.
Procedure: The rats were injected with the respective compounds for 21 consecutive days at the minimum active doses selected previously, based on acute treatment and assessment in the NOR test. The protocol for the NOR test was adapted from the original work and the test was performed according to the previously described protocol, 24 h after the last injection of the investigated compound. The discrimination index (DI) was calculated according to the formula:(7) DI=(EB−EA)/(EA+EB) where EB is the exploration time of novel object during the T2 session and EA is the exploration time of […].
PQA-AZ4 and PQA-AZ-6 were administered for 60 and 30 min, respectively, before the T1 phase (the familiarization phase). MK-801 was used to attenuate learning and was administered at a dose of 0.1 mg/kg (i.p.) 30 min before the familiarization phase (T1). The total exploration time in T2 was used to determine the influence of the treatment on the exploratory activity of the animals.

5-HT1AR = tested on: 5-HT1AR; set-up: method as in PMID 35248836; details: cited from earlier work
[4] = Serum glucose, triglyceride and cholesterol concentrations; assay type: in vivo, rats; details: rat, 1 mg/kg/day i.p., 21 days
Procedure: (§1) The blood samples were collected immediately after decapitation and then centrifuged at 600× g […], 4 °C, to separate the plasma. The blood was used to determine metabolic parameters such as glucose, cholesterol, and triglyceride levels, together with liver enzymatic activity.
Standard enzymatic spectrophotometric tests (Biomaxima S.A., Lublin, Poland) were used to determine glucose, cholesterol, and triglyceride levels in the serum. In the presence of an appropriate enzyme, the substrate was converted to a colored compound. Absorbance was measured at a wavelength of 500 nm.

rats [5] = test: 18-hour spontaneous activity monitoring; assay type: in vivo, male Wistar rats; details: rat, 1 mg/kg/day i.p.
Procedure: Spontaneous activity was measured on the 20th day of the treatment with a special, innovative, radio-frequency identification system (RFID-system), TraffiCage (TSE-Systems, Bad Homburg, Germany). The test was conducted according to the method described previously. The animals had RFID transmitters implanted subcutaneously, which tracked the time they spent in different areas of the cage.

Bdnf gene = Bdnf gene expression in brain structures (RT-qPCR, ex vivo); set-up: species or system rats; details: rat, 1 mg/kg/day i.p., 21 days; for Bdnf expression upregulation vs control, hippocampus: hippocampus (Hipp); for Bdnf expression upregulation vs control, prefrontal cortex: prefrontal cortex (PFX)
Procedure: Animals in all treatment groups were sacrificed by rapid decapitation immediately after the behavioral tests, when the brains and blood samples were collected. For quantitative reverse transcription-polymerase chain reaction (RT-qPCR), the brains of rats were rapidly removed, and the hippocampus and prefrontal cortex were dissected on an ice-cold glass plate. The tissues were frozen in dry ice and stored at −80 °C until required.
The total RNA was extracted from tissues using an RNA Isolation kit (Thermo Fisher Scientific, Rockford, IL, USA), and its concentration was normalized to 20 ng/μL. Reverse transcription was performed with a High-Capacity Reverse Transcription Kit (Life Technologies, Grand Island, NY, USA). A qPCR fast 96-well reaction plate was used for the process with TaqMan Gene Expression assay (Life Technologies) for brain-derived neurotrophic factor Bdnf (Rn02531967_s1) on an Applied Biosystems® 7500 Fast Real-Time PCR Instrument (Applied Biosystems, Foster City, CA, USA), according to the manufacturer’s protocol. Glyceraldehyde-3-phosphate dehydrogenase, Gapdh (Rn01775763_g1), was selected as endogenous control, based on the pilot experiment. Relative normalized expression was calculated using the ΔΔCq method.

[6] = Liver enzymatic activity in serum (AlaT, AspaT, γGTP, ALP); assay type: in vivo, rats; details: rat, 1 mg/kg/day i.p.; for activity of AlaT, AspaT, γGTP, ALP in serum: three-week administration
Procedure: as §1
To determine alanine aminotransferase (AlaT), […] (AspaT), alkaline phosphatase (ALP), or gamma-glutamyl transpeptidase (γGTP) activities in the serum, a standard enzymatic spectrophotometric test (Biomaxima S.A., Lublin, Poland) was used. Absorbance was measured at a wavelength of 340 nm (AlaT, AspaT) or 405 nm (ALP, γGTP).

[7] = chronic 1 mg/kg/day i.p., 21 days

SMILES: COc1cccc(N2CCN(CC3CCN(c4ncnc5cc(OC)c(OC)cc45)C3)CC2)c1 (centres unmarked) [PQA-AZ4, 6,7-Dimethoxy-4-(3-((4-(3-methoxyphenyl)piperazin-1-yl)methyl)pyrrolidin-1-yl)quinazoline]
- viability at 48 h, 75 µM [1]: 19.9%
- effect on immobility in FST (rats [2]): did not change the immobility
- Immobility time (rats [2]): 244.8 ± 8.9 s
- antidepressant-like activity in FST (rats [2]; [7]): inactive
- Total Exploratory Time in T2 Session ([3]; 1 mg/kg/day i.p. 21 days + (+)-MK-801 0.1 mg/kg): 28.83 ± 2.50 p < 0.01 vs. veh; p < 0.05 vs. (+)-MK-801 F(2,16) = 7.3773; p < 0.01
- effect on (+)-MK-801-induced recognition memory deficits (discrimination index) ([3]; 1 mg/kg/day i.p.): restored recognition memory deficits
- Functional profile at 5-HT1AR (5-HT1AR): partial agonists
- serum glucose concentration vs vehicle [4]: did not significantly change
- serum triglycerides concentration vs vehicle [4]: did not significantly change
- total cholesterol concentration vs vehicle [4]: slight but statistically significant (p < 0.05) increase
- spontaneous activity vs vehicle (rats [5]; five and six hours after 20-day administration): increased
- Bdnf expression upregulation vs control, hippocampus (Bdnf gene): about 2.8 fold
- Bdnf expression upregulation vs control, prefrontal cortex (Bdnf gene): about 10 fold
- activity of AlaT, AspaT, γGTP, ALP in serum [6]: no significant changes

SMILES: COc1cc2ncnc(N3CCC(CN4CCN(c5ccc(Cl)cc5)CC4)C3)c2cc1OC (centres unmarked) [PQA-AZ6, 4-(3-((4-(4-Chlorophenyl)piperazin-1-yl)methyl)pyrrolidin-1-yl)-6,7-dimethoxyquinazoline]
- viability at 48 h, 75 µM [1]: 84%
- effect on immobility in FST (rats [2]): did not change the immobility
- Immobility time (rats [2]): 255.4 ± 7.0 s
- antidepressant-like activity in FST (rats [2]; [7]): showed antidepressant-like properties
- decrease of immobility vs. control group in FST (rats [2]; [7]): about 11%
- Total Exploratory Time in T2 Session ([3]; 3 mg/kg/day i.p. 21 days + (+)-MK-801 0.1 mg/kg): 39.57 ± 4.39 F(2,17) = 1.3060; NS s
- effect on (+)-MK-801-induced recognition memory deficits (discrimination index) ([3]; 3 mg/kg/day i.p.): restored recognition memory deficits
- Functional profile at 5-HT1AR (5-HT1AR): partial agonists
- serum glucose concentration vs vehicle [4]: did not significantly change
- serum triglycerides concentration vs vehicle [4]: did not significantly change
- spontaneous activity vs vehicle (rats [5]; eighteen hours after 20-day administration): decreased
- Bdnf expression upregulation vs control, hippocampus (Bdnf gene): about 33 fold
- Bdnf expression upregulation vs control, prefrontal cortex (Bdnf gene): ~12 fold
- γGTP activity in serum vs control ([6]; 21 days): significantly lower
- activity of AlaT, AspaT, γGTP, ALP in serum [6]: no significant changes
